Experimental data published in ChEMBL document CHEMBL4507311, “Data for DCP probe A-1155463” (2021).

Legend:
[1] = target: RAC-gamma serine/threonine-protein kinase (Homo sapiens) (UniProt Q9Y243); settings: Compound concentration 1000.0 nM
[2] = target: Phosphatidylinositol 4-phosphate 3-kinase C2 domain-containing subunit beta (Homo sapiens) (UniProt O00750); settings: Compound concentration 1000.0 nM
[3] = target: Myosin light chain kinase 2, skeletal/cardiac muscle (Homo sapiens) (UniProt Q9H1R3); settings: Compound concentration 1000.0 nM
[4] = target: Death-associated protein kinase 1 (Homo sapiens) (UniProt P53355); settings: Compound concentration 1000.0 nM
[5] = target: Myosin light chain kinase family member 4 (Homo sapiens) (UniProt Q86YV6); settings: Compound concentration 1000.0 nM
[6] = target: Serine/threonine-protein kinase VRK2 (Homo sapiens) (UniProt Q86Y07); settings: Compound concentration 1000.0 nM
[7] = target: Mitogen-activated protein kinase kinase kinase 19 (Homo sapiens) (UniProt Q56UN5); settings: Compound concentration 1000.0 nM
[8] = target: MAP kinase-activated protein kinase 2 (Homo sapiens) (UniProt P49137); settings: Compound concentration 1000.0 nM
[9] = target: Platelet-derived growth factor receptor alpha (Homo sapiens) (UniProt P16234); settings: Compound concentration 1000.0 nM
[10] = system: Receptor-type tyrosine-protein kinase FLT3 (Homo sapiens), P36888 [N841I]; settings: Compound concentration 1000.0 nM
[11] = target: Tyrosine-protein kinase SYK (Homo sapiens) (UniProt P43405); settings: Compound concentration 1000.0 nM
[12] = system: Phosphatidylinositol 4,5-bisphosphate 3-kinase catalytic subunit alpha isoform (Homo sapiens), P42336 [Q546K]; settings: Compound concentration 1000.0 nM
[13] = target: Myosin light chain kinase, smooth muscle (Homo sapiens) (UniProt Q15746); settings: Compound concentration 1000.0 nM
[14] = target: MAP/microtubule affinity-regulating kinase 4 (Homo sapiens) (UniProt Q96L34); settings: Compound concentration 1000.0 nM
[15] = target: Receptor-type tyrosine-protein kinase FLT3 (Homo sapiens) (UniProt P36888); settings: Compound concentration 1000.0 nM
[16] = target: Homeodomain-interacting protein kinase 4 (Homo sapiens) (UniProt Q8NE63); settings: Compound concentration 1000.0 nM
[17] = target: TRAF2 and NCK-interacting protein kinase (Homo sapiens) (UniProt Q9UKE5); settings: Compound concentration 1000.0 nM
[18] = target: Serine/threonine-protein kinase MARK1 (Homo sapiens) (UniProt Q9P0L2); settings: Compound concentration 1000.0 nM
[19] = system: Receptor-type tyrosine-protein kinase FLT3 (Homo sapiens), P36888 [D835Y]; settings: Compound concentration 1000.0 nM
[20] = target: Mitogen-activated protein kinase kinase kinase kinase 3 (Homo sapiens) (UniProt Q8IVH8); settings: Compound concentration 1000.0 nM
[21] = target: Serine/threonine-protein kinase DCLK3 (Homo sapiens) (UniProt Q9C098); settings: Compound concentration 1000.0 nM
[22] = target: Serine/threonine-protein kinase N1 (Homo sapiens) (UniProt Q16512); settings: Compound concentration 1000.0 nM
[23] = target: Serine/threonine-protein kinase DCLK1 (Homo sapiens) (UniProt O15075); settings: Compound concentration 1000.0 nM
[24] = target: Serine/threonine-protein kinase pim-2 (Homo sapiens) (UniProt Q9P1W9); settings: Compound concentration 1000.0 nM
[25] = target: Cyclin-dependent kinase 14 (Homo sapiens) (UniProt O94921); settings: Compound concentration 1000.0 nM
[26] = target: MAP kinase-activated protein kinase 5 (Homo sapiens) (UniProt Q8IW41); settings: Compound concentration 1000.0 nM
[27] = target: Ephrin type-A receptor 1 (Homo sapiens) (UniProt P21709); settings: Compound concentration 1000.0 nM
[28] = target: Serine/threonine-protein kinase Nek9 (Homo sapiens) (UniProt Q8TD19); settings: Compound concentration 1000.0 nM
[29] = system: RS4-11; assay: CellTiter-Glo Luminescent Cell Viability Assay (BCL-2 dependent cell line RS4-11); assay type: functional, cell-based; settings: Homo sapiens
[30] = target: Delta-type opioid receptor (Homo sapiens, UniProt P41143); assay: GPCRScan assay: inhibition of DOR; set-up: radioligand conc. used [nm] 1.0 – 2.0, parental cells stable HEK
[31] = target: Mitogen-activated protein kinase kinase kinase 5 (Homo sapiens) (UniProt Q99683); settings: Compound concentration 1000.0 nM
[32] = target: Cyclin-dependent kinase 3 (Homo sapiens) (UniProt Q00526); settings: Compound concentration 1000.0 nM
[33] = system: Receptor-type tyrosine-protein kinase FLT3 (Homo sapiens), P36888 [UNDEFINED MUTATION]; settings: Compound concentration 1000.0 nM
[34] = system: Epidermal growth factor receptor (Homo sapiens), P00533 [UNDEFINED MUTATION]; settings: Compound concentration 1000.0 nM
[35] = target: Tyrosine-protein kinase receptor Tie-1 (Homo sapiens) (UniProt P35590); settings: Compound concentration 1000.0 nM
[36] = system: Epidermal growth factor receptor (Homo sapiens), P00533 [L861Q]; settings: Compound concentration 1000.0 nM
[37] = target: Mitogen-activated protein kinase kinase kinase 2 (Homo sapiens) (UniProt Q9Y2U5); settings: Compound concentration 1000.0 nM
[38] = target: Receptor tyrosine-protein kinase erbB-4 (Homo sapiens) (UniProt Q15303); settings: Compound concentration 1000.0 nM
[39] = target: Beta-3 adrenergic receptor (Homo sapiens) (UniProt P13945); settings: Compound concentration 10.0 uM
[40] = target: Serine/threonine-protein kinase 38-like (Homo sapiens) (UniProt Q9Y2H1); settings: Compound concentration 1000.0 nM
[41] = target: Tyrosine-protein kinase Fyn (Homo sapiens) (UniProt P06241); settings: Compound concentration 1000.0 nM
[42] = target: Tyrosine-protein kinase FRK (Homo sapiens) (UniProt P42685); settings: Compound concentration 1000.0 nM
[43] = target: Receptor-type tyrosine-protein kinase FLT3 (Homo sapiens) (UniProt P36888); settings: Compound concentration 1000.0 nM; remark: listed apart in the source
[44] = target: Serine/threonine-protein kinase LATS1 (Homo sapiens) (UniProt O95835); settings: Compound concentration 1000.0 nM
[45] = target: Serine/threonine-protein kinase 36 (Homo sapiens) (UniProt Q9NRP7); settings: Compound concentration 1000.0 nM

Chain of Death-associated protein kinase 1 (Homo sapiens) (P53355 whole entry, looked up): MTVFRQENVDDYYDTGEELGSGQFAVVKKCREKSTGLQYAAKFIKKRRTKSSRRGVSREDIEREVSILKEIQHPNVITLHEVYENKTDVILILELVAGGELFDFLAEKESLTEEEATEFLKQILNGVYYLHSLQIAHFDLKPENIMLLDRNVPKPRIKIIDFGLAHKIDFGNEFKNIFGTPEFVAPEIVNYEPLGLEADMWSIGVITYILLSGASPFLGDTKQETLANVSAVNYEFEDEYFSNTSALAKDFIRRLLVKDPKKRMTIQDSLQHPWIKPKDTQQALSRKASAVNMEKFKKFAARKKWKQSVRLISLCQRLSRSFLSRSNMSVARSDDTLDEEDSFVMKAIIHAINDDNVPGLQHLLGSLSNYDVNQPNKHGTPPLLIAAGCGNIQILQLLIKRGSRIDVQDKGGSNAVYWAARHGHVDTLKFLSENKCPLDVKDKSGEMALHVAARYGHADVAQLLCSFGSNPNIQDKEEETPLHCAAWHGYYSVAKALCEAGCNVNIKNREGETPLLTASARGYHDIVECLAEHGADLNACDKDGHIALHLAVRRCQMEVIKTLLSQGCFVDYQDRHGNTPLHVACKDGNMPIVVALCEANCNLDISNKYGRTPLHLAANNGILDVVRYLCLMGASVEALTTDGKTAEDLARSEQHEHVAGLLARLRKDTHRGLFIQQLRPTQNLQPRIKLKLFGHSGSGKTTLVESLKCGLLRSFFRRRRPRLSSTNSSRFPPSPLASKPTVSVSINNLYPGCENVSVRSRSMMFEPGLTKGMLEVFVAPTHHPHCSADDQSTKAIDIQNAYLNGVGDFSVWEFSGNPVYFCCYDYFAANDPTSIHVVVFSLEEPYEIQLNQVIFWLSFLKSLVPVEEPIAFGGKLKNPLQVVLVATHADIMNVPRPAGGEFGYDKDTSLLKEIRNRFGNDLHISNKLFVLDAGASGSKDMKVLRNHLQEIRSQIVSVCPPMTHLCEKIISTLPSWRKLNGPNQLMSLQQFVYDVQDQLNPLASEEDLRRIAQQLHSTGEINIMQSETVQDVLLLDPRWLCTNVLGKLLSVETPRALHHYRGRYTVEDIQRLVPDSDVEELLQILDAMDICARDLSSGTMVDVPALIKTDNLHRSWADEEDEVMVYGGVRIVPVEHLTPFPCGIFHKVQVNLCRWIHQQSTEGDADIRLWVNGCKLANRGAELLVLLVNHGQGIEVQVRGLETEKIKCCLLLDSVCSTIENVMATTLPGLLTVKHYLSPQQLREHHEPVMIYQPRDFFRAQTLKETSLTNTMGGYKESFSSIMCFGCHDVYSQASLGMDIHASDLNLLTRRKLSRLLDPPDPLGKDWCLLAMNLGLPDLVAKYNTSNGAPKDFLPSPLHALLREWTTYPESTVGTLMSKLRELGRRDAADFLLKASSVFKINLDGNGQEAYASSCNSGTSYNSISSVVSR
Chain of Serine/threonine-protein kinase MARK1 (Homo sapiens) (Q9P0L2 whole entry, looked up): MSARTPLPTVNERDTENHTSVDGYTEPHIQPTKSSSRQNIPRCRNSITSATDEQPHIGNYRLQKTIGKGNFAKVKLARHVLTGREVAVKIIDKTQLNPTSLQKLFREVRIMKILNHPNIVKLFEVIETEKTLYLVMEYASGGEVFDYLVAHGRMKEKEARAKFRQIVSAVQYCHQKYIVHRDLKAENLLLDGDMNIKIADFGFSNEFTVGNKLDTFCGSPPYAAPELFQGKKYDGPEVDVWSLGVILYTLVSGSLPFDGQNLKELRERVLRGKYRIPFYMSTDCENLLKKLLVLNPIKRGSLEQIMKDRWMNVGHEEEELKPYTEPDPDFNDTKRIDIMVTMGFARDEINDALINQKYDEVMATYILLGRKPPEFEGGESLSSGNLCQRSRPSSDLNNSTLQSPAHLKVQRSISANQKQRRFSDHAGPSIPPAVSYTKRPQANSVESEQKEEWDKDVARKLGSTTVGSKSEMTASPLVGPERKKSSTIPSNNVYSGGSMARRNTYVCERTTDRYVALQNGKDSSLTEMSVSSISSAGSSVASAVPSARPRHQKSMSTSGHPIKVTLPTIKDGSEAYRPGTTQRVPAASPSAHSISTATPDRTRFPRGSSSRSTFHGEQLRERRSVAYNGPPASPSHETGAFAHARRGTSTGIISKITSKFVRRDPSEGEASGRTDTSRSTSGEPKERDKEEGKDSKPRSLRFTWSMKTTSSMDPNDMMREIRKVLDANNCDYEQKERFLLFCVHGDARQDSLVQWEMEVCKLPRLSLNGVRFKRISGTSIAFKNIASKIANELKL
Chain of RAC-gamma serine/threonine-protein kinase (Homo sapiens) (Q9Y243 whole entry, the tested form may be a part): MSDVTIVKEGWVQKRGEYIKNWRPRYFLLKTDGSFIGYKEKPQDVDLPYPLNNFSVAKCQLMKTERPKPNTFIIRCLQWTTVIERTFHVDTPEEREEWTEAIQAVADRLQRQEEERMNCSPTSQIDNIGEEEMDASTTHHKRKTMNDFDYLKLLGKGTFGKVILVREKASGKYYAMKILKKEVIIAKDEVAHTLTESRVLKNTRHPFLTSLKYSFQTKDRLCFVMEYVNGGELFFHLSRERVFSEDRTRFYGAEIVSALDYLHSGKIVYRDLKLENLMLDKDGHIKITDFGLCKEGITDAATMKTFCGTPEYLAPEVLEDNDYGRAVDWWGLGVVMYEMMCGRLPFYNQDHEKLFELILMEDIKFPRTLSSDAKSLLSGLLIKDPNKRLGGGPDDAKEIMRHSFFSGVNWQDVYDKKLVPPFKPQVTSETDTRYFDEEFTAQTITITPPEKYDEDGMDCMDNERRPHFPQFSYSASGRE
Chain of Mitogen-activated protein kinase kinase kinase 19 (Homo sapiens) (Q56UN5 whole entry): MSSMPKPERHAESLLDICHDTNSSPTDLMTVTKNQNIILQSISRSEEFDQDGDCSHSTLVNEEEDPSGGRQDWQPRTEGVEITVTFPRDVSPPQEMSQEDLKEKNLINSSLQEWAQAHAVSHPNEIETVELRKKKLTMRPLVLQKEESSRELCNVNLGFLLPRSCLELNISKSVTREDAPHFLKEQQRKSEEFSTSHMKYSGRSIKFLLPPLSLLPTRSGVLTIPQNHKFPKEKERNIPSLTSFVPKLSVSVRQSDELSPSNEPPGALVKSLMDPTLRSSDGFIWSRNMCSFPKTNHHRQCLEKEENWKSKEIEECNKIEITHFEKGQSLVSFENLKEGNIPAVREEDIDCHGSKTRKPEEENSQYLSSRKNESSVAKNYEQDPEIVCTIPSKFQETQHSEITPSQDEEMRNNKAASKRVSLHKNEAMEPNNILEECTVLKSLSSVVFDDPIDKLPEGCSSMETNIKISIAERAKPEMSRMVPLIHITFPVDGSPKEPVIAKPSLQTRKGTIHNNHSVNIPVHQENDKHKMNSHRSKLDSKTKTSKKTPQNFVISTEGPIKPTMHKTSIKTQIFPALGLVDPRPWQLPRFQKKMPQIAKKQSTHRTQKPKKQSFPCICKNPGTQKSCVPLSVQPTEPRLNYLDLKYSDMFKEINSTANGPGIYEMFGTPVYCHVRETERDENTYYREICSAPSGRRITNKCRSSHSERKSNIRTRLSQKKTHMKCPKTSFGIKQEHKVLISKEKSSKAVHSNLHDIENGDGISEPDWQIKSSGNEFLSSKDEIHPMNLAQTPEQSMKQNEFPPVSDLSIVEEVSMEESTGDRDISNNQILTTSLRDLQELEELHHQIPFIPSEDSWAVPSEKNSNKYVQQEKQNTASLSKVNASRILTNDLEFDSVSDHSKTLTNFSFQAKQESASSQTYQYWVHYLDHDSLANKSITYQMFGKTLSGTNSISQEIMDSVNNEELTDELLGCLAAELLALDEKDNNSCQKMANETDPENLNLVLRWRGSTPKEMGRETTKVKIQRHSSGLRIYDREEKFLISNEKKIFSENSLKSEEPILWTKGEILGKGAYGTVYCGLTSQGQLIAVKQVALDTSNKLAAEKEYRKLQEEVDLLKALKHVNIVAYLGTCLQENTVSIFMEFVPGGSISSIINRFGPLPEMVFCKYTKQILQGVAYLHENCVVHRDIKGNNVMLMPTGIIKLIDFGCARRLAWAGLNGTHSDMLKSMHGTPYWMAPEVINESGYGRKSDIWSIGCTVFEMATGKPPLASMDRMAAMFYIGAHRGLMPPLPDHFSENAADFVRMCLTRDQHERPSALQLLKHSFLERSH
Chain of Beta-3 adrenergic receptor (Homo sapiens) (P13945 whole entry, looked up): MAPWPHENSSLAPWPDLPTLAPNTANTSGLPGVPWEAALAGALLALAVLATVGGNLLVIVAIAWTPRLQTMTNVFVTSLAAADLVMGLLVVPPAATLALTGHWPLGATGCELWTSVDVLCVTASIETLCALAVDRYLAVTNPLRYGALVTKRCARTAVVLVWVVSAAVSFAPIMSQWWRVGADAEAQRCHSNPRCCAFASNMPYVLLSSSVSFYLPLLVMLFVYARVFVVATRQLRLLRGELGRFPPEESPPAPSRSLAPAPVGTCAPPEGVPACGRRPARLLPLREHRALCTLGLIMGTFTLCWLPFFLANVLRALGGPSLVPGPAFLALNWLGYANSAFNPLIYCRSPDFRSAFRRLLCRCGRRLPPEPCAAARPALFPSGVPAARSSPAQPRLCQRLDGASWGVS
Chain of Tyrosine-protein kinase FRK (Homo sapiens) (P42685 whole entry): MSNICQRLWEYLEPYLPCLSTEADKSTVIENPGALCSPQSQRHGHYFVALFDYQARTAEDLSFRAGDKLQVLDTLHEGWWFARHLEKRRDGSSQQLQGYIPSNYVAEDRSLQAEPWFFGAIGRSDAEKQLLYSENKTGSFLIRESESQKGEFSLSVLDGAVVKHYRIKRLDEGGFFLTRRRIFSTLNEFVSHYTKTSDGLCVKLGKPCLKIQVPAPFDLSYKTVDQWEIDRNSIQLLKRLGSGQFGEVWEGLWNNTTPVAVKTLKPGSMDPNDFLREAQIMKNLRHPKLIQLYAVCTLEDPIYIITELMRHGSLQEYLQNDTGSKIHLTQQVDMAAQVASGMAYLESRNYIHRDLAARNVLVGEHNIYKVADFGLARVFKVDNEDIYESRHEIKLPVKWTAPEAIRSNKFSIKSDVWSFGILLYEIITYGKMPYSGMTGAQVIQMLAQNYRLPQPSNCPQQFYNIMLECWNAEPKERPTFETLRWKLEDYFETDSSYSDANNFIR

CN(C)CC#Cc1ccc(OCCCc2sc(N3CCc4cccc(C(=O)Nc5nc6ccccc6s5)c4C3)nc2C(=O)O)c(F)c1 [A-1155463]
residual activity [1]: 100%
residual activity [2]: 100%
residual activity [3]: 100%
residual activity [4]: 91%
residual activity [5]: 99%
residual activity [6]: 100%
residual activity [7]: 95%
residual activity [8]: 88%
residual activity [9]: 100%
residual activity [10]: 81%
residual activity [11]: 100%
residual activity [12]: 79%
residual activity [13]: 81%
residual activity [14]: 76%
residual activity [15]: 80%
residual activity [16]: 100%
residual activity [17]: 83%
residual activity [18]: 93%
residual activity [19]: 83%
residual activity [20]: 92%
residual activity [21]: 100%
residual activity [22]: 91%
residual activity [23]: 72%
residual activity [24]: 100%
residual activity [25]: 100%
residual activity [26]: 99%
residual activity [27]: 100%
residual activity [28]: 95%
EC50 [29]: > 10 µM (not active)
Ki [30]: 2120 nM
residual activity [31]: 94%
residual activity [32]: 68%
residual activity [33]: 100%
residual activity [34]: 86%
residual activity [35]: 85%
residual activity [36]: 100%
residual activity [37]: 75%
residual activity [38]: 99%
inhibition [39]: 3.53%
residual activity [40]: 83%
residual activity [41]: 96%
residual activity [42]: 96%
residual activity [43]: 95%
residual activity [44]: 76%
residual activity [45]: 99%
